Key:
Test in all cases: Ambit kinase profiling, competition binding
WEE2 = biological target: T1, WEE2 (Homo sapiens, UniProt P0C1S8); details: compound concentration 10 uM, read-out: Percent Competition
T1 construct: purchased Ambit Biosciences (KINOMEscan)
Excerpt: (§1) Supplement pone.0044653.s004.xls, sheet "Compound 122" | column: Percent Competition

LOK = biological target: T2, LOK (Homo sapiens, UniProt O94804); details: compound concentration 10 uM
T2 construct: purchased Ambit Biosciences (KINOMEscan)
Excerpt: as §1

BRK = biological target: T3, BRK (Homo sapiens, UniProt Q13882); details: compound concentration 10 uM, read-out: Percent Competition
T3 construct: purchased Ambit Biosciences (KINOMEscan)
T3 sequence (Q13882 whole entry): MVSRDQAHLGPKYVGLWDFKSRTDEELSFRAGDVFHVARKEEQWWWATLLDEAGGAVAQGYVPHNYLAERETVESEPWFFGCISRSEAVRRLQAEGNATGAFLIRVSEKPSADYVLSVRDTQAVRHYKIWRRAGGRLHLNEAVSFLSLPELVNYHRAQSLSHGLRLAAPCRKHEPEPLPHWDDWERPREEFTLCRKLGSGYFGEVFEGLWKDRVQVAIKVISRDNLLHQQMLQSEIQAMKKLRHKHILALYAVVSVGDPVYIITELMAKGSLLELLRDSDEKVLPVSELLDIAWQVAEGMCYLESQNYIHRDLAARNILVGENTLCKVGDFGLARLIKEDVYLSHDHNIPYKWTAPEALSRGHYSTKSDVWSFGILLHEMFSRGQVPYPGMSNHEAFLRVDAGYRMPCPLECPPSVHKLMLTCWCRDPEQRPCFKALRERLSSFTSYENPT
Excerpt: as §1

PKAC-alpha = biological target: T4, PKAC-alpha (Homo sapiens, UniProt P17612); details: compound concentration 10 uM, read-out: Percent Competition
T4 construct: purchased Ambit Biosciences (KINOMEscan)
Excerpt: as §1

PDPK1 = biological target: T5, PDPK1 (Homo sapiens, UniProt O15530); details: compound concentration 10 uM, read-out: Percent Competition
T5 construct: purchased Ambit Biosciences (KINOMEscan)
Excerpt: as §1

[1] = biological target: T6, JAK3(JH1domain-catalytic) (Homo sapiens, UniProt P52333); details: compound concentration 10 uM, read-out: Percent Competition
T6 construct: JAK3(JH1domain-catalytic); purchased Ambit Biosciences (KINOMEscan)
Excerpt: as §1

AMPK-alpha2 = biological target: T7, AMPK-alpha2 (Homo sapiens, UniProt P54646); details: compound concentration 10 uM, read-out: Percent Competition
T7 construct: purchased Ambit Biosciences (KINOMEscan)
Excerpt: as §1

FGFR1 = biological target: T8, FGFR1 (Homo sapiens, UniProt P11362); details: compound concentration 10 uM, read-out: Percent Competition
T8 construct: purchased Ambit Biosciences (KINOMEscan)
Excerpt: as §1

[2] = biological target: T9, RPS6KA2(Kin.Dom.2-C-terminal) (Homo sapiens, UniProt Q15349); details: compound concentration 10 uM, read-out: Percent Competition
T9 construct: RPS6KA2(Kin.Dom.2-C-terminal); purchased Ambit Biosciences (KINOMEscan)
Excerpt: as §1

DCAMKL1 = biological target: T10, DCAMKL1 (Homo sapiens, UniProt O15075); details: compound concentration 10 uM
T10 construct: purchased Ambit Biosciences (KINOMEscan)
Excerpt: as §1

ABL2 = biological target: T11, ABL2 (Homo sapiens, UniProt P42684); details: compound concentration 10 uM, read-out: Percent Competition
T11 construct: purchased Ambit Biosciences (KINOMEscan)
Excerpt: as §1

PIM3 = biological target: T12, PIM3 (Homo sapiens, UniProt Q86V86); details: compound concentration 10 uM, read-out: Percent Competition
T12 construct: purchased Ambit Biosciences (KINOMEscan)
Excerpt: as §1

ERBB2 = biological target: T13, ERBB2 (Homo sapiens, UniProt P04626); details: compound concentration 10 uM, read-out: Percent Competition
T13 construct: purchased Ambit Biosciences (KINOMEscan)
Excerpt: as §1

FLT3(K663Q) = biological target: T14, FLT3(K663Q) (Homo sapiens, UniProt P36888, K663Q); details: compound concentration 10 uM, read-out: Percent Competition
T14 construct: purchased Ambit Biosciences (KINOMEscan)
Excerpt: as §1

BMPR1A = biological target: T15, BMPR1A (Homo sapiens, UniProt P36894); details: compound concentration 10 uM, read-out: Percent Competition
T15 construct: purchased Ambit Biosciences (KINOMEscan)
Excerpt: as §1

[3] = biological target: T16, RPS6KA5(Kin.Dom.2-C-terminal) (Homo sapiens, UniProt O75582); details: compound concentration 10 uM, read-out: Percent Competition
T16 construct: RPS6KA5(Kin.Dom.2-C-terminal); purchased Ambit Biosciences (KINOMEscan)
Excerpt: as §1

ABL1(Q252H) = biological target: T17, ABL1(Q252H) (Homo sapiens, UniProt P00519, Q252H); details: compound concentration 10 uM, read-out: Percent Competition
T17 construct: purchased Ambit Biosciences (KINOMEscan)
Excerpt: as §1

MLCK = biological target: T18, MLCK (Homo sapiens, UniProt Q32MK0); details: compound concentration 10 uM, read-out: Percent Competition
T18 construct: purchased Ambit Biosciences (KINOMEscan)
Excerpt: as §1

PHKG1 = biological target: T19, PHKG1 (Homo sapiens, UniProt Q16816); details: compound concentration 10 uM, read-out: Percent Competition
T19 construct: purchased Ambit Biosciences (KINOMEscan)
Excerpt: as §1

PIK3CD = biological target: T20, PIK3CD (Homo sapiens, UniProt O00329); details: compound concentration 10 uM, read-out: Percent Competition
T20 construct: purchased Ambit Biosciences (KINOMEscan)
Excerpt: as §1

FLT1 = biological target: T21, FLT1 (Homo sapiens, UniProt P17948); details: compound concentration 10 uM, read-out: Percent Competition
T21 construct: purchased Ambit Biosciences (KINOMEscan)
Excerpt: as §1

ARK5 = biological target: T22, ARK5 (Homo sapiens, UniProt O60285); details: compound concentration 10 uM
T22 construct: purchased Ambit Biosciences (KINOMEscan)
T22 sequence (O60285 whole entry): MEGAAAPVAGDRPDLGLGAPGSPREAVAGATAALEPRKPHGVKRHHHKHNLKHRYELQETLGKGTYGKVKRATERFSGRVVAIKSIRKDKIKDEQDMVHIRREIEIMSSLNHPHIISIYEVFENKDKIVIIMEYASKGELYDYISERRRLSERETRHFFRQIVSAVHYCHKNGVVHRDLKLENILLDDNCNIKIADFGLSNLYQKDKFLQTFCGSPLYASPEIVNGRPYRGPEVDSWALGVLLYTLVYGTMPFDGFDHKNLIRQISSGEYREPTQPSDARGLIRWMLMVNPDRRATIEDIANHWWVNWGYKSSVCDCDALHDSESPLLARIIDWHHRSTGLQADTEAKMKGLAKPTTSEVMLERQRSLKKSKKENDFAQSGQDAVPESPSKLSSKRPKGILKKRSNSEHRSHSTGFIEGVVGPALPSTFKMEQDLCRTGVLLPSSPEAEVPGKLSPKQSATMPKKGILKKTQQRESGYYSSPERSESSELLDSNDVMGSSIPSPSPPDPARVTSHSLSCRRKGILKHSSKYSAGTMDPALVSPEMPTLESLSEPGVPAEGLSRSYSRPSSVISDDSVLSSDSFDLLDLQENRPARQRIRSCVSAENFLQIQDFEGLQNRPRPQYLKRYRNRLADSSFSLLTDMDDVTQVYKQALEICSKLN
Excerpt: as §1

MLK3 = biological target: T23, MLK3 (Homo sapiens, UniProt Q16584); details: compound concentration 10 uM
T23 construct: purchased Ambit Biosciences (KINOMEscan)
Excerpt: as §1

BLK = biological target: T24, BLK (Homo sapiens, UniProt P51451); details: compound concentration 10 uM, read-out: Percent Competition
T24 construct: purchased Ambit Biosciences (KINOMEscan)
T24 sequence (P51451 whole entry): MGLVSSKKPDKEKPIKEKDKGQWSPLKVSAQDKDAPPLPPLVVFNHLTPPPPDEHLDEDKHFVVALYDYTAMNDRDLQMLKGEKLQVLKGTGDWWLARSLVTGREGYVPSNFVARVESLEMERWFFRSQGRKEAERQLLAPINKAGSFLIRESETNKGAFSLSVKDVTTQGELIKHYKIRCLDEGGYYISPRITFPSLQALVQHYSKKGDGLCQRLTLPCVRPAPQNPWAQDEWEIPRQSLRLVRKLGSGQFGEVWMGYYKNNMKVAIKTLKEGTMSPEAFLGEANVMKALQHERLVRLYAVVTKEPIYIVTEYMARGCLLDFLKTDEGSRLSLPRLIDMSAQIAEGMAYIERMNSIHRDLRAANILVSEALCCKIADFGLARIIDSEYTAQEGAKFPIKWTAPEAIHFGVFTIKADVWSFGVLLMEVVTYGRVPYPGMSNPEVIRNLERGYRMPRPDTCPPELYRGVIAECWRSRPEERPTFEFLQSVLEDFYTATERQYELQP
Excerpt: as §1

IKK-beta = biological target: T25, IKK-beta (Homo sapiens, UniProt O14920); details: compound concentration 10 uM, read-out: Percent Competition
T25 construct: purchased Ambit Biosciences (KINOMEscan)
Excerpt: as §1

AURKA = biological target: T26, AURKA (Homo sapiens, UniProt O14965); details: compound concentration 10 uM, read-out: Percent Competition
T26 construct: purchased Ambit Biosciences (KINOMEscan)
Excerpt: as §1

CLK3 = biological target: T27, CLK3 (Homo sapiens, UniProt P49761); details: compound concentration 10 uM, read-out: Percent Competition
T27 construct: purchased Ambit Biosciences (KINOMEscan)
Excerpt: as §1

NEK2 = biological target: T28, NEK2 (Homo sapiens, UniProt P51955); details: compound concentration 10 uM, read-out: Percent Competition
T28 construct: purchased Ambit Biosciences (KINOMEscan)
Excerpt: as §1

DRAK2 = biological target: T29, DRAK2 (Homo sapiens, UniProt O94768); details: compound concentration 10 uM, read-out: Percent Competition
T29 construct: purchased Ambit Biosciences (KINOMEscan)
T29 sequence (O94768 whole entry): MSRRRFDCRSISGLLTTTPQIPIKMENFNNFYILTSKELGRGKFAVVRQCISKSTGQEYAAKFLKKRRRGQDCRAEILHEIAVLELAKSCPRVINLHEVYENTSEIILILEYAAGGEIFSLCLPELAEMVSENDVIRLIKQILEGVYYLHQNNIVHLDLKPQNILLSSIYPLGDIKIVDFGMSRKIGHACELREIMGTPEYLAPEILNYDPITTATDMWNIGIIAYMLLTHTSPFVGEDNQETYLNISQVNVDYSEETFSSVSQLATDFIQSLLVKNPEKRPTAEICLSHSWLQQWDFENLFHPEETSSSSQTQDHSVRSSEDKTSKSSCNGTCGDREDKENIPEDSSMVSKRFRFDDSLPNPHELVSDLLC
Excerpt: as §1

MAPKAPK5 = biological target: T30, MAPKAPK5 (Homo sapiens, UniProt Q8IW41); details: compound concentration 10 uM, read-out: Percent Competition
T30 construct: purchased Ambit Biosciences (KINOMEscan)
Excerpt: as §1

BRSK1 = biological target: T31, BRSK1 (Homo sapiens, UniProt Q8TDC3); details: compound concentration 10 uM, read-out: Percent Competition
T31 construct: purchased Ambit Biosciences (KINOMEscan)
Excerpt: as §1

LYN = biological target: T32, LYN (Homo sapiens, UniProt P07948); details: compound concentration 10 uM, read-out: Percent Competition
T32 construct: purchased Ambit Biosciences (KINOMEscan)
Excerpt: as §1

VEGFR2 = biological target: T33, VEGFR2 (Homo sapiens, UniProt P35968); details: compound concentration 10 uM, read-out: Percent Competition
T33 construct: purchased Ambit Biosciences (KINOMEscan)
Excerpt: as §1

ABL1(H396P) = biological target: T34, ABL1(H396P) (Homo sapiens, UniProt P00519, H396P); details: compound concentration 10 uM, read-out: Percent Competition
T34 construct: purchased Ambit Biosciences (KINOMEscan)
Excerpt: as §1

AAK1 = biological target: T35, AAK1 (Homo sapiens, UniProt Q2M2I8); details: compound concentration 10 uM, read-out: Percent Competition
T35 construct: purchased Ambit Biosciences (KINOMEscan)
T35 sequence (Q2M2I8 whole entry): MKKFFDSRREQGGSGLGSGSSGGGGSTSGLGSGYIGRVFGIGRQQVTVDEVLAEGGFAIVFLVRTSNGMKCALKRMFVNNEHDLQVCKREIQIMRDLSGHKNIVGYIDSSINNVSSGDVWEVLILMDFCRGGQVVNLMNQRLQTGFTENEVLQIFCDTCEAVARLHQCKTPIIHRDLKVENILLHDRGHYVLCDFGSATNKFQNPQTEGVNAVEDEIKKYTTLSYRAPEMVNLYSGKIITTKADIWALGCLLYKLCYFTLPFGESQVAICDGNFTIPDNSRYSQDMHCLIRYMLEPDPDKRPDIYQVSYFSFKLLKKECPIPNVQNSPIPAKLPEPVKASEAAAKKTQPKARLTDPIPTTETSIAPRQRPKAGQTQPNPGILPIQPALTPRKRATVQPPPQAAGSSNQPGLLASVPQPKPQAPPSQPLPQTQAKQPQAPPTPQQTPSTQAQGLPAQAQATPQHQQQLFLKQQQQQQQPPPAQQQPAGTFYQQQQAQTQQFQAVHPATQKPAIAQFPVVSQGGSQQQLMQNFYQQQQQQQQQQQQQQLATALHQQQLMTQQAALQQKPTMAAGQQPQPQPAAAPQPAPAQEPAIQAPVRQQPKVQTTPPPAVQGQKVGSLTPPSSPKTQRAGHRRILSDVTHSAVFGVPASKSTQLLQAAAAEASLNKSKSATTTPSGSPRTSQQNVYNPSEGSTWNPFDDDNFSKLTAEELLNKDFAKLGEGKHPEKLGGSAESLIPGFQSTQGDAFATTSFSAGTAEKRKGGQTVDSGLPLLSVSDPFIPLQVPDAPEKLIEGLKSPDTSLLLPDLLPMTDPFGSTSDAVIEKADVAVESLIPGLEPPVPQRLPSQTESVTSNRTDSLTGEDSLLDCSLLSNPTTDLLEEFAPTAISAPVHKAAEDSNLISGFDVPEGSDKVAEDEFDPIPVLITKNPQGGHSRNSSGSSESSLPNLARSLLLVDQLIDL
Excerpt: as §1

KIT(D816V) = biological target: T36, KIT(D816V) (Homo sapiens, UniProt P10721, D816V); details: compound concentration 10 uM, read-out: Percent Competition
T36 construct: purchased Ambit Biosciences (KINOMEscan)
Excerpt: as §1

NEK1 = biological target: T37, NEK1 (Homo sapiens, UniProt Q96PY6); details: compound concentration 10 uM, read-out: Percent Competition
T37 construct: purchased Ambit Biosciences (KINOMEscan)
T37 sequence (Q96PY6 whole entry): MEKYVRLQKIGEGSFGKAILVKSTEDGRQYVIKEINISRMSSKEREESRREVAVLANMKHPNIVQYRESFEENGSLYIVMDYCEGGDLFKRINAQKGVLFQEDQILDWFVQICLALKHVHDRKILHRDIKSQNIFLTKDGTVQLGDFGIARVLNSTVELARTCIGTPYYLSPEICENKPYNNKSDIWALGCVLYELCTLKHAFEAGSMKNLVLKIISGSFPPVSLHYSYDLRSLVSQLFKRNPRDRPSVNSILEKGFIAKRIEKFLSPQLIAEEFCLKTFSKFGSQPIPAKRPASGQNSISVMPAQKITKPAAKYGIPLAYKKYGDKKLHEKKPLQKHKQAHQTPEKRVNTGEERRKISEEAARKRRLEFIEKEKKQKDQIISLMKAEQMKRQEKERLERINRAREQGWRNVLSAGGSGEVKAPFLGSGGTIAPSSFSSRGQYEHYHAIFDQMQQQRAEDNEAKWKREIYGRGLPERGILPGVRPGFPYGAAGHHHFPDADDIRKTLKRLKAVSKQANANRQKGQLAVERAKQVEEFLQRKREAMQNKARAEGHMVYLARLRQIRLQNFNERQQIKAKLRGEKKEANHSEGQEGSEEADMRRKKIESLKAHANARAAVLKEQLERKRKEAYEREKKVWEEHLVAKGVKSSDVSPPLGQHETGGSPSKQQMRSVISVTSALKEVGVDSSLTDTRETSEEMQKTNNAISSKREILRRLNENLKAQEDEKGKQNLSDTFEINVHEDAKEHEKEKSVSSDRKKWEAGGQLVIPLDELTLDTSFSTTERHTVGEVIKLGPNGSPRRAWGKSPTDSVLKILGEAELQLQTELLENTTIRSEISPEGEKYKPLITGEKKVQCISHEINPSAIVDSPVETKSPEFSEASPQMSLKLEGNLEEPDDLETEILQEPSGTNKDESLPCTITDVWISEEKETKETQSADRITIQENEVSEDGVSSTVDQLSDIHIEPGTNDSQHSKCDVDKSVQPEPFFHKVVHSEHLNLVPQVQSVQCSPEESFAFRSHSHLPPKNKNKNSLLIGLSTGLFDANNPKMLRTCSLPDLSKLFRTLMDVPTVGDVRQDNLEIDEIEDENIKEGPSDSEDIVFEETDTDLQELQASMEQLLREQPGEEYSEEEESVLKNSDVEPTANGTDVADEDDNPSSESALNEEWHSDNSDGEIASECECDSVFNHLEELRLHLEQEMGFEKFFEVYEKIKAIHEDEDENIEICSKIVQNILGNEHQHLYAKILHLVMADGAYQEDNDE
Excerpt: as §1

IKK-epsilon = biological target: T38, IKK-epsilon (Homo sapiens, UniProt Q14164); details: compound concentration 10 uM, read-out: Percent Competition
T38 construct: purchased Ambit Biosciences (KINOMEscan)
Excerpt: as §1

PDGFRA = biological target: T39, PDGFRA (Homo sapiens, UniProt P16234); details: compound concentration 10 uM, read-out: Percent Competition
T39 construct: purchased Ambit Biosciences (KINOMEscan)
Excerpt: as §1

FGFR4 = biological target: T40, FGFR4 (Homo sapiens, UniProt P22455); details: compound concentration 10 uM, read-out: Percent Competition
T40 construct: purchased Ambit Biosciences (KINOMEscan)
T40 sequence (P22455 22-802): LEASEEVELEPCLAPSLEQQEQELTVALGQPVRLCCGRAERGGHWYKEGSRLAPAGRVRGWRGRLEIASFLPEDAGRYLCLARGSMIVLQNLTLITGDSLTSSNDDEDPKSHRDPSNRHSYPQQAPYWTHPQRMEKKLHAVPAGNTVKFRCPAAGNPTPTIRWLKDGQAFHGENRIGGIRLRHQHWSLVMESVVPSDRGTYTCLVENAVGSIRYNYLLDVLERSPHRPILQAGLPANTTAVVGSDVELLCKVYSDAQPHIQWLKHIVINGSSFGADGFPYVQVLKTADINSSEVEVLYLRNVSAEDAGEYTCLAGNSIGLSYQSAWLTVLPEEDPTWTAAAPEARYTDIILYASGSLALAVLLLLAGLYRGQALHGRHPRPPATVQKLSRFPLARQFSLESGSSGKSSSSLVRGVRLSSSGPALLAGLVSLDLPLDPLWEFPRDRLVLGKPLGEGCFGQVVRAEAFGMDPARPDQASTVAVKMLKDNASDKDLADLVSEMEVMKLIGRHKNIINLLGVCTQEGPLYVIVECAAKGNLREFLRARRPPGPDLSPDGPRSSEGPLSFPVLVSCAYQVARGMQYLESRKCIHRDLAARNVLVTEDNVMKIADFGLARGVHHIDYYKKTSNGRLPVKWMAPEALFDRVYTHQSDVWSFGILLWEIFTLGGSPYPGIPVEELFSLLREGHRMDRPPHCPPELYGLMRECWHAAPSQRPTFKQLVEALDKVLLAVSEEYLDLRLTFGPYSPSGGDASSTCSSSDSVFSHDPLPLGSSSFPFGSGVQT
Excerpt: as §1

In the case of `Fc1ccc(-c2c(-c3ccncc3)[nH]c3nccnc23)cc1` [RO1155697-000-005], the inhibition at 10 µM (WEE2) is reported as less than 50%, the “Percent Competition” value (LOK) is reported as less than 50% and the inhibition at 10 µM (BRK) is reported as less than 50%. For the same molecule, the inhibition at 10 µM (PKAC-alpha) was less than 50%, the inhibition at 10 µM (PDPK1) was less than 50% and the inhibition at 10 µM [1] was less than 50%. For the same molecule, the inhibition at 10 µM (AMPK-alpha2) was less than 50%, the inhibition at 10 µM (FGFR1) was less than 50% and the inhibition at 10 µM [2] was less than 50%. For the same molecule, the “Percent Competition” value (DCAMKL1) was less than 50%, the inhibition at 10 µM (ABL2) was less than 50% and the inhibition at 10 µM (PIM3) was less than 50%. It also gave an inhibition at 10 µM (ERBB2) of less than 50%, an inhibition at 10 µM (FLT3(K663Q)) of less than 50% and an inhibition at 10 µM (BMPR1A) of less than 50%. It also gave an inhibition at 10 µM [3] of less than 50%, an inhibition at 10 µM (ABL1(Q252H)) of less than 50% and an inhibition at 10 µM (MLCK) of less than 50%. It also gave an inhibition at 10 µM (PHKG1) of less than 50%, an inhibition at 10 µM (PIK3CD) of less than 50% and an inhibition at 10 µM (FLT1) of less than 50%. The “Percent Competition” value (ARK5) was less than 50%, the “Percent Competition” value (MLK3) was less than 50% and the inhibition at 10 µM (BLK) was less than 50%. The inhibition at 10 µM (IKK-beta) was less than 50%, the inhibition at 10 µM (AURKA) was less than 50% and the inhibition at 10 µM (CLK3) was less than 50%. It also gave an inhibition at 10 µM (NEK2) of less than 50%, an inhibition at 10 µM (DRAK2) of less than 50% and an inhibition at 10 µM (MAPKAPK5) of less than 50%. For the same molecule, the inhibition at 10 µM (BRSK1) was less than 50%, the inhibition at 10 µM (LYN) was less than 50% and the inhibition at 10 µM (VEGFR2) was less than 50%. For the same molecule, the inhibition at 10 µM (ABL1(H396P)) was less than 50%, the inhibition at 10 µM (AAK1) was less than 50% and the inhibition at 10 µM (KIT(D816V)) was less than 50%. It also gave an inhibition at 10 µM (NEK1) of less than 50%, an inhibition at 10 µM (IKK-epsilon) of less than 50% and an inhibition at 10 µM (PDGFRA) of less than 50%. The inhibition at 10 µM (FGFR4) was less than 50%.
